# Source: US8247211B2, “Glycopeptide antibiotics” (American Cyanamid Company, priority 2001, dated 2012)
# Tests used:
# Assay in all cases: In vitro antibacterial evaluation: minimum inhibitory concentration (MIC), broth dilution method
# Type in all cases: cell-based
# Escherichia coli = conditions: 5×10^5 CFU/mL, 18 hours at 35° C.
# Method: (§1) The minimum inhibitory concentration (MIC), the lowest concentration of the antibiotic which inhibits growth of the test organism, is determined by the broth dilution method using Muller-Hinton II […] (Baltimore Biological Laboratories) following the recommendations of the National Committee for Clinical Laboratory Standards [Methods for dilution antimicrobial susceptibility tests for bacteria that grow aerobically, approved standard M7-A2, National Committee for Clinical Laboratory Standards, Villanova, Pa].
# (§2) An inoculum level of 5×10^5 CFU/mL, and a range of antibiotic concentrations (64-0.06 μg/mL) is used. […] The test organisms include a spectrum of Gram-positive bacteria comprised of Staphylococcus sp., Streptococcus sp. and Enterococcus sp. These organisms include recent clinical isolates that are resistant to methicillin, penicillin and/or vancomycin.
# Streptococcus sp. = conditions: broth dilution, 5×10^5 CFU/mL, 18 hours at 35° C.
# Method: as §1, §2
# Staphylococcus sp. = conditions: for MIC Staphylococcus aureus (ATCC 29213): strain ATCC 29213; for MIC Staphylococcus aureus (GC 1131): strain GC 1131; for MIC Staphylococcus aureus (GC 3051): strain GC 3051; for MIC Staphylococcus aureus (GC 3053): strain GC 3053; for MIC Staphylococcus aureus (GC 4541): strain GC 4541; for MIC Staphylococcus aureus (GC 4542): strain GC 4542; for MIC Staphylococcus aureus (GC 4544): strain GC 4544; for MIC Staphylococcus aureus (GC 4545): strain GC 4545
# Method: as §1, §2
# Enterococcus sp. = conditions: broth dilution, 5×10^5 CFU/mL, 18 hours at 35° C.
# Method: as §1, §2
# [1] = broth dilution, 5×10^5 CFU/mL, 18 hours at 35° C.
# [2] = broth dilution, 18 hours at 35° C.
structure (smiles),measurement,setting,value
"CC(c1ccccc1)C1NC(=O)CNC(=O)C(CO)NC(=O)C(C(O)C2CNC(=N)N2C2OC(CO)C(O)C(O)C2O)NC(=O)C(C(O)C2CNC(=N)N2)NC(=O)C(Cc2ccc(OC3OC(CO)C(OC4OC5COC(c6cccs6)OC5C(O)C4O)C(O)C3O)cc2)NC1=O (stereo not drawn) [Example 132, Cyclo[glycyl-β-methylphenylalanyl-O-[4-O-[4,6-O-(2-thienylmethylene)hexopyranosyl]-hexopyranosyl]tyrosyl-3-(2-iminoimidazolidin-4-yl)seryl-3-(3-hexopyranosyl-2-iminoimidazolidin-4-yl)serylseryl]]",MIC Escherichia coli (ATCC 25922),Escherichia coli,>64 µg/mL
same,MIC Escherichia coli (GC 4559),Escherichia coli,32 µg/mL
same,MIC Escherichia coli (GC 4560),Escherichia coli,1 µg/mL
same,MIC Streptococcus agalactiae (GC 4564),Streptococcus sp.,0.5 µg/mL
same,MIC Streptococcus pneumoniae (GC 1894),Streptococcus sp.,0.12 µg/mL
same,MIC Streptococcus pneumoniae (GC 4565),Streptococcus sp.,0.25 µg/mL
same,MIC Streptococcus pneumonine (ATCC 6301),Streptococcus sp.,0.25 µg/mL
same,MIC Streptococcus pyogenes (GC 4563),Streptococcus sp.,0.5 µg/mL
same,MIC Coagulase Negative Staphylococcus (GC 4547),Staphylococcus sp.; [1],2 µg/mL
same,MIC Coagulase Negative Staphylococcus (GC 4548),Staphylococcus sp.; [1],1 µg/mL
same,MIC Coagulase Negative Staphylococcus (GC 4549),Staphylococcus sp.; [1],1 µg/mL
same,MIC Coagulase Negative Staphylococcus (GC 4551),Staphylococcus sp.; [1],2 µg/mL
same,MIC Coagulase Negative Staphylococcus (GC 6257),Staphylococcus sp.; [1],1 µg/mL
same,MIC Staphylococcus aureus-SMITH (GC 4543),Staphylococcus sp.; [1],2 µg/mL
same,MIC Staphylococcus haemolyticus (GC 4546),Staphylococcus sp.; [1],1 µg/mL
same,MIC Staphylococcus aureus (ATCC 29213),Staphylococcus sp.,4 µg/mL
same,MIC Staphylococcus aureus (ATCC 29213),Staphylococcus sp.; [2],4 µg/mL
same,MIC Staphylococcus aureus (GC 1131),Staphylococcus sp.,2 µg/mL
same,MIC Staphylococcus aureus (GC 1131),Staphylococcus sp.; [2],2 µg/mL
same,MIC Staphylococcus aureus (GC 3051),Staphylococcus sp.,2 µg/mL
same,MIC Staphylococcus aureus (GC 3051),Staphylococcus sp.; [2],2 µg/mL
same,MIC Staphylococcus aureus (GC 3053),Staphylococcus sp.,4 µg/mL
same,MIC Staphylococcus aureus (GC 3053),Staphylococcus sp.; [2],4 µg/mL
same,MIC Staphylococcus aureus (GC 4541),Staphylococcus sp.,2 µg/mL
same,MIC Staphylococcus aureus (GC 4541),Staphylococcus sp.; [2],2 µg/mL
same,MIC Staphylococcus aureus (GC 4542),Staphylococcus sp.,2 µg/mL
same,MIC Staphylococcus aureus (GC 4542),Staphylococcus sp.; [2],2 µg/mL
same,MIC Staphylococcus aureus-SMITH (GC 4543),"Staphylococcus sp.; strain GC 4543, broth dilution, 18 hours at 35° C.",2 µg/mL
same,MIC Staphylococcus aureus (GC 4544),Staphylococcus sp.,4 µg/mL
same,MIC Staphylococcus aureus (GC 4544),Staphylococcus sp.; [2],4 µg/mL
same,MIC Staphylococcus aureus (GC 4545),Staphylococcus sp.,2 µg/mL
same,MIC Staphylococcus aureus (GC 4545),Staphylococcus sp.; [2],2 µg/mL
same,MIC Staphylococcus haemolyticus (GC 4546),"Staphylococcus sp.; strain GC 4546, broth dilution, 18 hours at 35° C.",1 µg/mL
same,MIC Coagulase Negative Staphylococcus (GC 4547),"Staphylococcus sp.; strain GC 4547, broth dilution, 18 hours at 35° C.",2 µg/mL
same,MIC Coagulase Negative Staphylococcus (GC 4548),"Staphylococcus sp.; strain GC 4548, broth dilution, 18 hours at 35° C.",1 µg/mL
same,MIC Coagulase Negative Staphylococcus (GC 4549),"Staphylococcus sp.; strain GC 4549, broth dilution, 18 hours at 35° C.",1 µg/mL
same,MIC Coagulase Negative Staphylococcus (GC 4551),"Staphylococcus sp.; strain GC 4551, broth dilution, 18 hours at 35° C.",2 µg/mL
same,MIC Coagulase Negative Staphylococcus (GC 6257),"Staphylococcus sp.; strain GC 6257, broth dilution, 18 hours at 35° C.",1 µg/mL
same,MIC Enterococccus avium (GC 4558),Enterococcus sp.,16 µg/mL
same,MIC Enterococccus faecalis (ATCC 29212),Enterococcus sp.,8 µg/mL
same,MIC Enterococccus faecalis (GC 2691),Enterococcus sp.,8 µg/mL
same,MIC Enterococccus faecalis (GC 3059),Enterococcus sp.,16 µg/mL
same,MIC Enterococccus faecalis (GC 4552),Enterococcus sp.,8 µg/mL
same,MIC Enterococccus faecalis (GC 4553),Enterococcus sp.,16 µg/mL
same,MIC Enterococccus faecalis (GC 4554),Enterococcus sp.,8 µg/mL
same,MIC Enterococccus faecalis (GC 6189),Enterococcus sp.,8 µg/mL
same,MIC Enterococccus faecium (GC 2243),Enterococcus sp.,8 µg/mL
same,MIC Enterococccus faecium (GC 4556),Enterococcus sp.,8 µg/mL
same,MIC Enterococccus faecium (GC 4557),Enterococcus sp.,4 µg/mL
same,MIC Enterococcus faecalis (GC 2242),Enterococcus sp.,8 µg/mL
